# Data as given in patent US20250302832A1, “PYRAZINE DERIVATIVES AND USES THEREOF” (FOGHORN THERAPEUTICS INC., priority 2022, published 2025).
# What was measured:
# [1] = target: T1, HiBit-BRG1 fusion protein (Homo sapiens, UniProt P51532); assay: HiBiT-BRG1 cell-based degradation assay (Nano-Glo HiBiT lytic detection, 24 h); conditions: HeLa cell line expressing HiBit-BRG1 and LgBit, read-out: BRG1 HiBit Degradation Maximum (%)
# T1 construct: expressed in transfected cells
# Summary of the method: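 HeLa cells stably expressing HiBiT-BRG1 and LgBiT, 5000 per well, compound-treated 24 h, equilibrated 15 min at room temperature, then lysed with LgBiT-containing Nano-Glo HiBiT lytic reagent and luminescence read. % degradation normalised between DMSO (high control) and 2 μM reference BRM/BRG1 degrader (low control).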
# [2] = target: T2, HiBit-BRM fusion protein (Homo sapiens, UniProt P51531); assay: HiBiT-BRM cell-based degradation assay (Nano-Glo HiBiT lytic detection, 24 h); conditions: HeLa cell line expressing HiBiT-BRM; for DC50: read-out: BRM HiBit Degradation IC50
# T2 construct: expressed in transfected cells
# Summary of the method: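 Stable HeLa HiBiT-BRM cells treated 24 h with compounds (10-point 3-fold dilutions, 30 μM final top dose, duplicate). HiBiT levels read by Nano-Glo lytic luminescence; % degradation normalised to DMSO (high control) and 2 μM reference BRM/BRG1 degrader (low control).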
# T1 sequence (P51532 whole entry, the tested form may be a part): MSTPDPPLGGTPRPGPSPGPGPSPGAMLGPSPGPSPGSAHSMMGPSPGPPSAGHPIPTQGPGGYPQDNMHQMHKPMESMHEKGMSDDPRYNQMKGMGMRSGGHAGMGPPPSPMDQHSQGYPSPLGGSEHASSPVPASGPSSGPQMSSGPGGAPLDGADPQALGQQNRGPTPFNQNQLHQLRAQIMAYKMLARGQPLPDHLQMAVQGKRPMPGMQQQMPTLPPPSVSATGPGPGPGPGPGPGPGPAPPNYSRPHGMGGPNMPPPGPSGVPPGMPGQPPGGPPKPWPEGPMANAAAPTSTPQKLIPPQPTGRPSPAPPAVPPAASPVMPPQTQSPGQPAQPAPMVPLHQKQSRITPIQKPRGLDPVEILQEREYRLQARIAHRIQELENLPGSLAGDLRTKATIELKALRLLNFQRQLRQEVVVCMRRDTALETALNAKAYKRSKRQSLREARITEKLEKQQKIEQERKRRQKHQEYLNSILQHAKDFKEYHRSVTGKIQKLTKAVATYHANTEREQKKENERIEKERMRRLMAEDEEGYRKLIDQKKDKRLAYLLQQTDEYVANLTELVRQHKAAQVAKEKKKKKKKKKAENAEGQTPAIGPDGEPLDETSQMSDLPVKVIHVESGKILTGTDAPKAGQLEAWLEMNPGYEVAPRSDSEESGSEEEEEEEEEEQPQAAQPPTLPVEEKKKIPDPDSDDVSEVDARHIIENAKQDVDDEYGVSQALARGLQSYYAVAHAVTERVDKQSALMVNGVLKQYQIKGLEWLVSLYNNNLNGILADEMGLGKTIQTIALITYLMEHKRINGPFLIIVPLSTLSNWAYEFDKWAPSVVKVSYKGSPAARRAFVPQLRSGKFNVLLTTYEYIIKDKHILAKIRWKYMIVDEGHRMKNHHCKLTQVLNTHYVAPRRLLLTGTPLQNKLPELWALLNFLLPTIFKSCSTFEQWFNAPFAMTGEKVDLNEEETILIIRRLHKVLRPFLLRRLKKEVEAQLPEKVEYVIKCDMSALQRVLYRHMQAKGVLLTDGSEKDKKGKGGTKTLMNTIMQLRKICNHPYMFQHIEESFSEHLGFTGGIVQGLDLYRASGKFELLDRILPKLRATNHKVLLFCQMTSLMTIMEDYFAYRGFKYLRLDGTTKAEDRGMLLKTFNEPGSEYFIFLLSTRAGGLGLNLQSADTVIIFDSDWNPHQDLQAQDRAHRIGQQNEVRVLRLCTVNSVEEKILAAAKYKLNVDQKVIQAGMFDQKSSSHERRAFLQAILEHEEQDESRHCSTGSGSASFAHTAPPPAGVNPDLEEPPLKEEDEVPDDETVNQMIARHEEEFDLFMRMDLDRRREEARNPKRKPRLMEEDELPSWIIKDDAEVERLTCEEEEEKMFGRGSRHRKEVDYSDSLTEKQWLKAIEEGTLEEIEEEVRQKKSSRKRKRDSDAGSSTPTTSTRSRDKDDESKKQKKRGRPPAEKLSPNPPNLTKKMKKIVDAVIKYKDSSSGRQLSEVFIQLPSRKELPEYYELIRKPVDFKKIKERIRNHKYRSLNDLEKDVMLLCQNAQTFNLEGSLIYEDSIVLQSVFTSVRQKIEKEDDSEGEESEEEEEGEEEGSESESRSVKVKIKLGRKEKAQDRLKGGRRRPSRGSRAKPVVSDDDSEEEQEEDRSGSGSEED
# T2 sequence (P51531 whole entry, the tested form may be a part): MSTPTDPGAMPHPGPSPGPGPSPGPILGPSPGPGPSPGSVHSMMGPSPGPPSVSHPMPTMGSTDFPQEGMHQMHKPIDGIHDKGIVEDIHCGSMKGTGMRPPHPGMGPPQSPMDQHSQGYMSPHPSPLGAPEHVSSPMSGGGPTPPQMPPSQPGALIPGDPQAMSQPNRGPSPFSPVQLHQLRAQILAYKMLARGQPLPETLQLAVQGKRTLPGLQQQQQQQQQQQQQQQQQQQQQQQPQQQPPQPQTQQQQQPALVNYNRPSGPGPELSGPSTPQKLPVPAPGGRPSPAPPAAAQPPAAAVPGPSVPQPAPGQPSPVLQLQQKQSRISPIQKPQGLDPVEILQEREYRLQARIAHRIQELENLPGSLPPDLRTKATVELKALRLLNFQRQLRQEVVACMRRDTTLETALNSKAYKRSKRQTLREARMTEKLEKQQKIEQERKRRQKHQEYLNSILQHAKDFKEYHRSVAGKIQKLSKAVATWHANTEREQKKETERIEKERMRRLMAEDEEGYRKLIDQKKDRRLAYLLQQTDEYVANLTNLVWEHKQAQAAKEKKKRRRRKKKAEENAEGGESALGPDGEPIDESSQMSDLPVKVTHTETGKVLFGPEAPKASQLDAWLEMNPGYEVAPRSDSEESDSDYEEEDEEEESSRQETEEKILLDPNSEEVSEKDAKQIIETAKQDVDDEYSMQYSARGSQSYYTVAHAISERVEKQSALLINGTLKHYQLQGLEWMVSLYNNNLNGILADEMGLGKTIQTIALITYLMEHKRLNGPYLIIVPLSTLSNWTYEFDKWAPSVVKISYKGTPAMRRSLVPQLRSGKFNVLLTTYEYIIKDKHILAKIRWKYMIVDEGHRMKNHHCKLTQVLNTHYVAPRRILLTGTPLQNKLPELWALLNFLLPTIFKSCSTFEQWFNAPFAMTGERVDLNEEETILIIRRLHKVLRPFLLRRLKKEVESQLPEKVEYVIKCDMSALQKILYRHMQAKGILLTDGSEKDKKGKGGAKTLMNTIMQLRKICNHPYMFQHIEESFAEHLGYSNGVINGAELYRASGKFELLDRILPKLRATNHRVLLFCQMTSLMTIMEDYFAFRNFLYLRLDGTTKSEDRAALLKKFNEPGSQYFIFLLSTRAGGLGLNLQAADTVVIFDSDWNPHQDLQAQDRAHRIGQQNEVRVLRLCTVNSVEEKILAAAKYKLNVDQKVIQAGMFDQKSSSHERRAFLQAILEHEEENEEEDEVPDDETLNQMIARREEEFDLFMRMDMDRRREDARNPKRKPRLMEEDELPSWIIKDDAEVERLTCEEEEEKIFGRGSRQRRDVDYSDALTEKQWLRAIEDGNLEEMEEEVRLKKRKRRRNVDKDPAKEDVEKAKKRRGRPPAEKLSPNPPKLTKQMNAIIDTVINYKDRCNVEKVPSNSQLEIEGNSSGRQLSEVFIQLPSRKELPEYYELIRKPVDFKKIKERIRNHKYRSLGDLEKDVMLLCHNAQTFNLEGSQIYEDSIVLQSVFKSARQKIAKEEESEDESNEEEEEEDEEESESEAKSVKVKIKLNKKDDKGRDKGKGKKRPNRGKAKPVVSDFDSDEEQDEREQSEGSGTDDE
smiles,measurement,setting,value
"C#Cc1ccc([C@H](C)NC(=O)[C@@H]2C[C@@H](O)CN2C(=O)C(c2cc(N3CC4(CC(c5cc6nnc(-c7ccccc7O)cc6n5C5CCC5)C4)C3)no2)C(C)C)c(Cl)c1 (stereo partly drawn) [Compound 121, (2S,4R)-N-((S)-1-(2-chloro-4-ethynylphenyl)ethyl)-1-(2-(3-(6-(5-cyclobutyl-3-(2-hydroxyphenyl)-5H-pyrrolo[3,2-c]pyridazin-6-yl)-2-azaspiro[3.3]heptan-2-yl)isoxazol-5-yl)-3-methylbutanoyl)-4-hydroxypyrrolidine-2-carboxamide]",Dmax,[1],< 50%
same,BRM HiBit Degradation Maximum (%),[2],A (“A” indicates maximum degradation ≥75%)
same,DC50,[2],> 10 nM
"CC(C)C(C(=O)N1C[C@H](O)C[C@H]1C(=O)NC12CC(C1)C2)c1cc(N2CC3(CC(c4cc5nnc(-c6ccccc6O)cc5n4C4CCC4)C3)C2)no1 (stereo partly drawn) [Compound 120, (2S,4R)-N-(bicyclo[1.1.1]pentan-1-yl)-1-(2-(3-(6-(5-cyclobutyl-3-(2-hydroxyphenyl)-5H-pyrrolo[3,2-c]pyridazin-6-yl)-2-azaspiro[3.3]heptan-2-yl)isoxazol-5-yl)-3-methylbutanoyl)-4-hydroxypyrrolidine-2-carboxamide]",Dmax,[1],< 50%
same,BRM HiBit Degradation Maximum (%),[2],A (“A” indicates maximum degradation ≥75%)
same,DC50,[2],> 10 nM
"Cc1ncsc1-c1ccc([C@H](C)NC(=O)[C@@H]2C[C@@H](O)CN2C(=O)[C@H](c2cc(-c3cnc(N4CCC(c5cc6nnc(-c7ccccc7O)cc6n5C5CC5)CC4)nc3)no2)C(C)C)cc1 [Compound 26, (2S,4R)-1-[(2S)-2-[3-(2-{4-[5-cyclopropyl-3-(2-hydroxyphenyl)pyrrolo[3,2-c]pyridazin-6-yl]piperidin-1-yl}pyrimidin-5-yl)-1,2-oxazol-5-yl]-3-methylbutanoyl]-4-hydroxy-N-[(1S)-1-[4-(4-methyl-1,3-thiazol-5-yl)phenyl]ethyl]pyrrolidine-2-carboxamide]",Dmax,[1],< 50%
same,BRM HiBit Degradation Maximum (%),[2],C (“C” indicates maximum degradation <50%)
"CNC(=O)[C@@H]1C[C@@H](O)CN1C(=O)[C@@H](c1cc(N2CC3(CC(c4cc5nnc(-c6ccccc6O)cc5n4C4CCC4)C3)C2)no1)C(C)C [Compound 61, (2S,4R)-1-((R)-2-(3-(6-(5-cyclobutyl-3-(2-hydroxyphenyl)-5H-pyrrolo[3,2-c]pyridazin-6-yl)-2-azaspiro[3.3]heptan-2-yl)isoxazol-5-yl)-3-methylbutanoyl)-4-hydroxy-N-methylpyrrolidine-2-carboxamide]",Dmax,[1],< 50%
same,BRM HiBit Degradation Maximum (%),[2],A (“A” indicates maximum degradation ≥75%)
same,DC50,[2],> 10 nM
"Cc1ncsc1-c1ccc([C@H](C)NC(=O)[C@@H]2C[C@@H](O)CN2C(=O)[C@@H](c2cc(N3CCC4(CC3)CC(c3cc5nnc(-c6ccccc6O)cc5n3C3CC3)C4)no2)C(C)C)cc1 [Compound 117, (2S,4R)-1-((R)-2-(3-(2-(5-cyclopropyl-3-(2-hydroxyphenyl)-5H-pyrrolo[3,2-c]pyridazin-6-yl)-7-azaspiro[3.5]nonan-7-yl)isoxazol-5-yl)-3-methylbutanoyl)-4-hydroxy-N-((S)-1-(4-(4-methylthiazol-5-yl)phenyl)ethyl)pyrrolidine-2-carboxamide]",Dmax,[1],< 50%
same,BRM HiBit Degradation Maximum (%),[2],A (“A” indicates maximum degradation ≥75%)
same,DC50,[2],< 10 nM
"Cc1ncsc1-c1ccc([C@H](C)NC(=O)[C@@H]2C[C@@H](O)CN2C(=O)[C@@H](c2cc(OCC(=O)N3CC(c4cc5nnc(-c6ccccc6O)cc5n4C)C3)no2)C(C)C)cc1 [Compound 15, (2S,4R)-4-hydroxy-1-((R)-2-(3-(2-(3-(3-(2-hydroxyphenyl)-5-methyl-5H-pyrrolo[3,2-c]pyridazin-6-yl)azetidin-1-yl)-2-oxoethoxy)isoxazol-5-yl)-3-methylbutanoyl)-N-((S)-1-(4-(4-methylthiazol-5-yl)phenyl)ethyl)pyrrolidine-2-carboxamide]",Dmax,[1],< 50%
same,BRM HiBit Degradation Maximum (%),[2],A (“A” indicates maximum degradation ≥75%)
same,DC50,[2],> 100 nM
